Experimental data published in US6482830B1 (SuperGen, Inc., priority 2002, dated 2002).
Like-named read-outs stand apart in the source and are kept apart here.

Legend:
[1] = Procedure: Dehydration/desolvation studies were conducted by placing a sample under continuous vacuum at room temperature for 14 days. An XRPD pattern was obtained on the remaining solid and compared to the starting material.
[2] = ground in an amalgamator for 10 minutes
[3] = for Hygroscopicity: from moisture sorption 5 to 95% RH; for Weight % chg: 25 deg C
Procedure: Moisture sorption/desorption data were collected on a VTI SGA-100 moisture balance system. […] The samples were not dried prior to analysis. Equilibrium criteria used for analysis were less than 0.0100 weight % change in 5 minutes with a maximum equilibration time of 3 hours if the weight criterion was not met. Data were not corrected for the initial moisture content of the samples.

human tumor xenografts = settings: cited from earlier work
[4] = tested on: human colon cancer xenografts; settings: in vivo; cited from earlier work
[5] = cited from earlier work
[6] = cited from earlier work; remark: listed apart in the source
DNA topoisomerase I = target: T1, DNA topoisomerase I (Homo sapiens, UniProt P11387); settings: by stabilizing the cleavable complex; cited from earlier work
T1 sequence (P11387 1-765): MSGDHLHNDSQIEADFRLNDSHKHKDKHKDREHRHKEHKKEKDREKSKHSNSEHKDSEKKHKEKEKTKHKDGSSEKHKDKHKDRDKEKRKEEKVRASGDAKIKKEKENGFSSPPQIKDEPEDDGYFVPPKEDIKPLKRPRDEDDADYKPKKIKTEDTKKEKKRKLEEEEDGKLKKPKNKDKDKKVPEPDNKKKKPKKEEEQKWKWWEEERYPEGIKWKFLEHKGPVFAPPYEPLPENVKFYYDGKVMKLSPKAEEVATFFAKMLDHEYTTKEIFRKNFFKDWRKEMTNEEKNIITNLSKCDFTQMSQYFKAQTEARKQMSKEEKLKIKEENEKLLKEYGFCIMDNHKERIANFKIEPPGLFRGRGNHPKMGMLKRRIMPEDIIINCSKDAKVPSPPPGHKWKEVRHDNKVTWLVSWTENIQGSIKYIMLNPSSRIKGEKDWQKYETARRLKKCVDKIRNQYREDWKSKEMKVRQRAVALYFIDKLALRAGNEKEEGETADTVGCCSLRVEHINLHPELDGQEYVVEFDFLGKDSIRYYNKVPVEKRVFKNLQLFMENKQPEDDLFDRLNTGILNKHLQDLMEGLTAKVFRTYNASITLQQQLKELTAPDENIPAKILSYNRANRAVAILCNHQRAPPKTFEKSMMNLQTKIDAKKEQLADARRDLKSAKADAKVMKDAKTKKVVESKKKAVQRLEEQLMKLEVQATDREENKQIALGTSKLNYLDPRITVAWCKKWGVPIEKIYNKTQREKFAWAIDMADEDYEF

[7] = closed vial, 31 days, ambient conditions

Question: For CC[C@@]1(O)C(=O)OCc2c1cc1n(c2=O)Cc2cc3c([N+](=O)[O-])cccc3nc2-1 [Form C, 9-nitro-20(S)-camptothecin], which “Change of form on desolvation under vacuum” value [1] is on record?
Answer: becomes amorphous

Question: Which results are given for CC[C@@]1(O)C(=O)OCc2c1cc1n(c2=O)Cc2cc3c([N+](=O)[O-])cccc3nc2-1 [Form A, 9-nitro-20(S)-camptothecin]?
Answer: Change of crystallinity on grinding (XRPD) [2]: losing crystallinity after grinding; Hygroscopicity [3]: not hygroscopic

Question: Which results are given for CC[C@@]1(O)C(=O)OCc2c1cc1n(c2=O)Cc2cc3c([N+](=O)[O-])cccc3nc2-1 [9-nitrocamptothecin, 9-nitro-20(S)-camptothecin]?
Answer: Growth of human tumor xenografts (human tumor xenografts; immunodeficient nude mice): inhibited the growth; Activity against human tumor xenograft models (human tumor xenografts; mouse, in vivo): high activity; Regression of established human tumors (human tumor xenografts; xenografts in nude mice): induced regression

Question: Which “Anticancer activity against human colon cancer xenografts” value [4] does the source give for CC[C@@]1(O)C(=O)OCc2c1cc1n(c2=O)Cc2cc3c(N)cccc3nc2-1 [Form 9AC, 9-Amino-20(S)-Camptothecin] here?
Answer: high anticancer activity

Question: Which “Anticancer activity against human colon cancer xenografts” value [4] does the source give for CC[C@@]1(O)C(=O)OCc2c1cc1n(c2=O)Cc2cc3cc4c(cc3nc2-1)OCO4 [10,11,MD, 10,11-methylendioxy-20(S)-camptothecin] here?
Answer: high anticancer activity

Question: With CC[C@@](O)(C(=O)[O-])c1cc2n(c(=O)c1CO)Cc1cc3ccccc3nc1-2.[Na+] [Sodium camptothecin] as the compound, how does the “Side effects in clinical trials” value ([5]; administered intravenously) read?
Answer: myelosuppression and hemorrhagic cystitis

Question: What about the “Antineoplastic activity in clinical trials” value ([5]; solubilized by sodium hydroxide in water, early 1970's trials) of the same compound?
Answer: found to have antineoplastic activity

Question: What does the source list for CC[C@@]1(O)C(=O)OCc2c1cc1n(c2=O)Cc2cc3ccccc3nc2-1 [Camptothecin]?
Answer: Water solubility [6]: poorly water soluble; Inhibition of DNA topoisomerase I (DNA topoisomerase I): inhibit DNA topoisomerase I

Question: With CC[C@@]1(O)C(=O)OCc2c1cc1n(c2=O)Cc2cc3c([N+](=O)[O-])cccc3nc2-1 [Form B, 9-nitro-20(S)-camptothecin] as the compound, how does the “Total weight gained in the region from 5 to 95% RH” value ([3]; 5 to 95% RH) read?
Answer: 2.21%

Question: And the Weight % chg ([3]; desorption, about 5% RH)?
Answer: −1.0408%

Question: What about the Weight % chg ([3]; desorption, about 15% RH) of the same compound?
Answer: −0.5118%

Question: What about the Weight % chg ([3]; desorption, about 25% RH) of the same compound?
Answer: −0.1151%

Question: What about the Weight % chg ([3]; desorption, about 35% RH) of the same compound?
Answer: 0.1861%

Question: What about the Weight % chg ([3]; desorption, about 45% RH) of the same compound?
Answer: 0.4359%

Question: And the Weight % chg ([3]; desorption, about 55% RH)?
Answer: 0.6637%

Question: What about the Weight % chg ([3]; desorption, about 65% RH) of the same compound?
Answer: 0.8473%

Question: And the Weight % chg ([3]; desorption, about 75% RH)?
Answer: 1.0310%

Question: And the Weight % chg ([3]; desorption, about 85% RH)?
Answer: 1.1706%

Question: And the “Water lost upon equilibration at 5% RH” value ([3]; equilibration at 5% RH)?
Answer: 0.98%

Question: And the Hygroscopicity [3]?
Answer: relatively hygroscopic

Question: What about the Weight % chg ([3]; sorption, about 5% RH) of the same compound?
Answer: −0.9820%

Question: What about the Weight % chg ([3]; sorption, about 15% RH) of the same compound?
Answer: −0.4898%

Question: And the Weight % chg ([3]; sorption, about 25% RH)?
Answer: −0.1151%

Question: What about the Weight % chg ([3]; sorption, about 35% RH) of the same compound?
Answer: 0.1788%

Question: And the Weight % chg ([3]; sorption, about 45% RH)?
Answer: 0.4286%

Question: And the Weight % chg ([3]; sorption, about 55% RH)?
Answer: 0.6416%

Question: And the Weight % chg ([3]; sorption, about 65% RH)?
Answer: 0.8314%

Question: And the Weight % chg ([3]; sorption, about 75% RH)?
Answer: 0.9869%

Question: And the Weight % chg ([3]; sorption, about 85% RH)?
Answer: 1.1118%

Question: And the Weight % chg ([3]; sorption, about 95% RH)?
Answer: 1.2293%

Question: And the Weight % chg ([3]; start, elapsed time 0.0 min)?
Answer: 0.0000%

Question: And the “Stability of the crystalline polymorph on storage (XRPD pattern)” value [7]?
Answer: relatively stable
